{"source": "patent US20080039320A1", "about": "(priority 2004, published 2008)", "key": {"Phytophthora infestans": {"tested_on": "Phytophthora infestans", "format": "in vivo", "conditions": "tomato plants"}, "Pyricularia oryzae": {"tested_on": "Pyricularia oryzae", "format": "in vivo", "conditions": "rice seedlings"}, "[1]": {"tested_on": "Erysiphe [syn. Blumeria] graminis forma specialis. tritici", "assay": "Activity against mildew of wheat, 6 day protective application (Use Example 6)", "format": "in vivo", "conditions": "wheat seedlings", "procedure": "(§1) The active compounds were prepared separately as a stock solution with 0.25% by weight of active compound in acetone or DMSO. 1% by weight of the emulsifier Uniperol® EL (wetting agent having emulsifying and dispersing action based on ethoxylated alkylphenols) was added to this solution, and the mixture was diluted with water to the desired concentration.\n(§2) The visually determined percentages of infected leaf areas were converted into efficacies in % of the untreated control:\n(§3) The efficacy (E) is calculated as follows using Abbot's formula: E=(1−α/β)·100 α corresponds to the fungicidal infection of the treated plants in % and β corresponds to the fungicidal infection of the untreated (control) plants in % An efficacy of 0 means that the infection level of the treated plants corresponds to that of the untreated control plants; an efficacy of 100 means that the treated plants were not infected.\n(§4) The expected efficacies of active compound combinations were determined using Colby's formula (Colby, S. R. “Calculating synergistic and antagonistic responses of herbicide combinations”, Weeds, 15, 20-22, 1967) and compared with the observed efficacies.\n(§5) Colby's formula: E=x+y−x·y/100\nActivity Against Mildew of Wheat Caused by Erysiphe [syn. Blumeria] graminis Forma Specialis. Tritici, 6 Day Protective Application Leaves of potted wheat seedlings of the cultivar “Kanzler” were sprayed to runoff point with an aqueous suspension having the concentration of active compound stated below. The suspension or emulsion had been prepared as described above. 6 days after the application of the active compound, the plants were dusted with spores of mildew of wheat (Erysiphe [syn. Blumeria] graminis forma specialis. tritici). The test plants were then placed in a greenhouse at temperatures between 20 and 24° C. and at 60 to 90% relative atmospheric humidity. After 7 days, the extent of the mildew development was determined visually in % infection of the total leaf area."}, "Puccinia recondita [2]": {"tested_on": "Puccinia recondita", "assay": "6 day protective activity against brown rust of wheat, foliar spray (Use Example 4)", "format": "in vivo", "conditions": "wheat seedlings", "procedure": "as §1, §2, §3, §4, §5\n6 Day Protective Activity Against Puccinia recondita on Wheat (Brown Rust of Wheat) Leaves of potted wheat seedlings of the cultivar “Kanzler” were sprayed to runoff point with an aqueous suspension having the concentration of active compound stated below. After six days, the treated plants were inoculated with a spore suspension of brown rust of wheat (Puccinia recondite). The plants were then placed in a chamber of high atmospheric humidity (90 to 95%) at 20 to 22° C. for 24 hours. During this time, the spores germinated and the germ tubes penetrated into the leaf tissue. The next day, the test plants were returned to the greenhouse and cultivated at temperatures between 20 and 22° C. and at 65 to 70% relative atmospheric humidity for a further 7 days. The extent of the rust fungus development on the leaves was then determined visually."}, "Puccinia recondita [3]": {"tested_on": "Puccinia recondita", "assay": "Protective activity against brown rust of wheat, menadione watered in, partner sprayed 6 days later (Use Example 2)", "format": "in vivo", "conditions": "wheat seedlings", "procedure": "as §1, §2, §3, §4\nColby's formula: E=x+y−x·y/100 […]"}, "Pyrenophora teres": {"tested_on": "Pyrenophora teres", "assay": "Activity against net blotch of barley, 6 day protective application (Use Example 3)", "format": "in vivo, Pyrenophora [syn. Drechslera] teres", "conditions": "barley seedlings", "procedure": "as §1, §2, §3, §4, §5\nActivity Against Net Blotch of Barley Caused by Pyrenophora teres, 6 Day Protective Application Leaves of potted barley seedlings were sprayed to runoff point with an aqueous suspension having the concentration of active compound stated below. After 6 days, the test plants were inoculated with an aqueous spore suspension of Pyrenophora [syn. Drechslera] teres, the net blotch pathogen. The test plants were then placed in a greenhouse at temperatures between 20 and 24° C. and 95 to 100% relative atmospheric humidity. After 6 days, the extent of the development of the disease was determined visually in % infection of the total leaf area."}, "phytopathogenic fungi": {"tested_on": "phytopathogenic fungi", "assay": "Fungicidal tests, overall statements", "format": "in vivo", "conditions": "menadione on its own", "procedure": "as §1, §2\nThe efficacy (E) is calculated as follows using Abbot's formula: E=(1−α/β)·100\nas §4, §5"}}, "note": "Where two headings read alike, the source gives them in different places."}
{"compound": "COc1ccc(C(=CC(=O)N2CCOCC2)c2ccc(Cl)cc2)cc1OC", "note": "[dimethomorph, 3-(4-chlorophenyl)-3-(3,4-dimethoxyphenyl)-1-morpholin-4-ylpropenone]", "values": [{"measurement": "Observed effect (%)", "setting": "Phytophthora infestans; 16 ppm", "value": 37, "unit": "%"}]}
{"compound": "COC(=O)N(OC)c1ccccc1COc1ccn(-c2ccc(Cl)cc2)n1", "note": "[pyraclostrobin, methyl N-{2-[1-(4-chlorophenyl)-1H-pyrazol-3-yloxymethyl]phenyl}(N-methoxy)carbamate]", "values": [{"measurement": "Observed effect (%)", "setting": "Pyricularia oryzae; 1 ppm, applied 1 day before inoculation", "value": 20, "unit": "%"}]}
{"compound": "COc1cc(C)c(C(=O)c2c(OC)ccc(Br)c2C)c(OC)c1OC", "note": "[metrafenone, 3′-bromo-2,3,4,6′-tetramethoxy-2′,6-dimethylbenzophenone]", "values": [{"measurement": "Observed effect (%)", "setting": "[1]; 63 ppm", "value": 67, "unit": "%"}]}
{"compound": "Fc1ccc([C@]2(Cn3cncn3)O[C@H]2c2ccccc2Cl)cc1", "note": "(racemic) [epoxiconazole, (2RS,3SR)-1-[3-(2-chlorophenyl)-2,3-epoxy-2-(4-fluorophenyl)propyl]-1H-1,2,4-triazole]", "values": [{"measurement": "Observed effect (%)", "setting": "Puccinia recondita [2]; 1 ppm", "value": 22, "unit": "%"}]}
{"compound": "O=C(Nc1ccccc1-c1ccc(Cl)cc1)c1cccnc1Cl", "note": "[boscalid, 2-chloro-N-(4′-chlorobiphenyl-2-yl)nicotinamide]", "values": [{"measurement": "Observed effect (%)", "setting": "Puccinia recondita [2]; 63 ppm", "value": 22, "unit": "%"}]}
{"compound": "zinc ammoniate ethylenebis(dithiocarbamate) [metiram]", "values": [{"measurement": "Observed effect (%)", "setting": "[1]; 63 ppm", "value": 0, "unit": "%"}]}
{"compound": "CC1CCN(c2c(-c3c(F)cc(F)cc3F)c(Cl)nc3ncnn23)CC1", "note": "[compound A, 5-Chloro-7-(4-methylpiperidin-1-yl)-6-(2,4,6-trifluorophenyl)-[1,2,4]triazolo[1,5-a]pyrimidine]", "values": [{"measurement": "Observed effect (%)", "setting": "Puccinia recondita [2]; 63 ppm", "value": 22, "unit": "%"}, {"measurement": "Observed effect (%)", "setting": "Puccinia recondita [3]; 4 ppm, sprayed to runoff", "value": 25, "unit": "%"}]}
{"compound": "CC1=CC(=O)c2ccccc2C1=O", "note": "[menadione, 2-methyl-1,4-naphthoquinone]", "values": [{"measurement": "Observed effect (%)", "setting": "Pyricularia oryzae; 250 ppm, efficacy in % of untreated control (Abbot)", "value": 0, "unit": "%"}, {"measurement": "Observed effect (%)", "setting": "Pyrenophora teres; 16 ppm", "value": 0, "unit": "%"}, {"measurement": "Observed effect (%)", "setting": "Pyrenophora teres; 63 ppm", "value": 0, "unit": "%"}, {"measurement": "fungicidal action against phytopathogenic fungi", "setting": "phytopathogenic fungi", "value": "no fungicidal action"}, {"measurement": "Observed effect (%)", "setting": "Puccinia recondita [2]; 1 ppm", "value": 0, "unit": "%"}, {"measurement": "Observed effect (%)", "setting": "Puccinia recondita [2]; 16 ppm", "value": 25, "unit": "%"}, {"measurement": "Observed effect (%)", "setting": "Puccinia recondita [3]; 3.6%, watered with 2 ml aqueous suspension comprising 71 mg", "value": 0, "unit": "%"}, {"measurement": "Observed effect (%)", "setting": "Phytophthora infestans; 63 ppm", "value": 27, "unit": "%"}, {"measurement": "Observed effect (%)", "setting": "[1]; 16 ppm", "value": 0, "unit": "%"}]}
{"compound": "CC(C)NC(=O)N1CC(=O)N(c2cc(Cl)cc(Cl)c2)C1=O", "note": "[iprodione, N-isopropyl-3-(3,5-dichlorophenyl)-2,4-dioxoimidazolidine-1-carboxamide]", "values": [{"measurement": "Observed effect (%)", "setting": "Pyrenophora teres; 250 ppm", "value": 22, "unit": "%"}]}
